Reference: patent US7097865B2, “Inhibition of CYP450 1A2, 2A6, 2C9, 2C19, 2D6, 2E1, and 3A4 in cryopreserved human hepatocytes by a Tripterygium Wilfordii Hook. F. extract” (Novemed Group Limited, priority 2002, dated 2006)
Each block holds one compound with its values, some of them ahead of it.

How the values were obtained:
[1] = target: CYP2A6 (Homo sapiens, UniProt P11509); conditions: Tranylcypromine 3 μM
[2] = target: CYP1A2 (Homo sapiens, UniProt P05177); experiment: in vitro; conditions: both, hepatocytes
Chain of CYP1A2 (P05177 whole entry): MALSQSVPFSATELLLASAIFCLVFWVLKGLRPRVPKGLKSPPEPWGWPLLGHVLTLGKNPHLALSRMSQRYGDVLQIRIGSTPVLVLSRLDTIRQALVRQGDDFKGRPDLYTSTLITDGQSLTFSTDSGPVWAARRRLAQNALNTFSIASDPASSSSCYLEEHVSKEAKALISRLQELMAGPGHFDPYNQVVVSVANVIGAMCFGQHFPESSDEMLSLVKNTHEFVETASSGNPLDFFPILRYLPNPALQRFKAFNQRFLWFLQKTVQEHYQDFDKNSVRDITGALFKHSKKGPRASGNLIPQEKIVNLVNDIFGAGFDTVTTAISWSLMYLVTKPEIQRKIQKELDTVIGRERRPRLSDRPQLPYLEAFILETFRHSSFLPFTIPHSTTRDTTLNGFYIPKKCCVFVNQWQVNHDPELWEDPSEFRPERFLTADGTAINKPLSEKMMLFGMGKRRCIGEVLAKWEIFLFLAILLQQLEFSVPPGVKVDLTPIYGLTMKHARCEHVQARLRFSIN
From the text: CYP1A2 activity was characterized by the formation of acetaminophen from phenacetin.

[3] = target: CYP2C19 (Homo sapiens, UniProt P33261); experiment: in vitro; conditions: both, pooled cryopreserved human hepatocytes in suspension, probe S-mephenytoin (20 μM)
Chain of CYP2C19 (P33261 whole entry): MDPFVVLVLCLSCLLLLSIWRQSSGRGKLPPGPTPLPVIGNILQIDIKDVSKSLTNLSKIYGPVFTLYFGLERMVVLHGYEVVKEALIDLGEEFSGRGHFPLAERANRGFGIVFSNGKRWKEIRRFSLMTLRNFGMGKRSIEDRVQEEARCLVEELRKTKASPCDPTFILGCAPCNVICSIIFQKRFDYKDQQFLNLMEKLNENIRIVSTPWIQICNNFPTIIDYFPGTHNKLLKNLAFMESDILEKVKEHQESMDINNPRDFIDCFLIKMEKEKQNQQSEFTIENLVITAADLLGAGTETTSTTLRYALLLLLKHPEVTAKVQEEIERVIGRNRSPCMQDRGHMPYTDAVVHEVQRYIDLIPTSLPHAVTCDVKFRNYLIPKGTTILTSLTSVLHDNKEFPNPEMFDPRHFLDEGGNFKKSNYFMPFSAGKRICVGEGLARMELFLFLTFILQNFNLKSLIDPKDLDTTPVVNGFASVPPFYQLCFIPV

[4] = target: T1, CYP2C9 (Homo sapiens, UniProt P11712); experiment: in vitro; conditions: both, hepatocytes
T1 sequence (P11712 whole entry): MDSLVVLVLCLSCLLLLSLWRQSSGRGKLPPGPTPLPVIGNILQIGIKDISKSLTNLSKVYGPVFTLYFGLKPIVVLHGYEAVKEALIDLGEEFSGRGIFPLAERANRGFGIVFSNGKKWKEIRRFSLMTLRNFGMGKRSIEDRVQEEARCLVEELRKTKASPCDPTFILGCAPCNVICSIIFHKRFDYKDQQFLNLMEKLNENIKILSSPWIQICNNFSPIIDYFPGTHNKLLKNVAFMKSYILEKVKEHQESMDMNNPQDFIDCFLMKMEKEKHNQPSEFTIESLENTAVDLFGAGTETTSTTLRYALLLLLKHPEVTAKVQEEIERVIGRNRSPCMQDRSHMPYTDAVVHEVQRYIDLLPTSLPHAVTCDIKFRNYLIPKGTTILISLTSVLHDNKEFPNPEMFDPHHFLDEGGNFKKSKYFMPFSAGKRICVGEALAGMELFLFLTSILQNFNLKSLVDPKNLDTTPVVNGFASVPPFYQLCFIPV

[5] = target: T1, CYP2C9; conditions: Sulfaphenazole 10 μM

Chain of CYP2A6 (P11509 whole entry): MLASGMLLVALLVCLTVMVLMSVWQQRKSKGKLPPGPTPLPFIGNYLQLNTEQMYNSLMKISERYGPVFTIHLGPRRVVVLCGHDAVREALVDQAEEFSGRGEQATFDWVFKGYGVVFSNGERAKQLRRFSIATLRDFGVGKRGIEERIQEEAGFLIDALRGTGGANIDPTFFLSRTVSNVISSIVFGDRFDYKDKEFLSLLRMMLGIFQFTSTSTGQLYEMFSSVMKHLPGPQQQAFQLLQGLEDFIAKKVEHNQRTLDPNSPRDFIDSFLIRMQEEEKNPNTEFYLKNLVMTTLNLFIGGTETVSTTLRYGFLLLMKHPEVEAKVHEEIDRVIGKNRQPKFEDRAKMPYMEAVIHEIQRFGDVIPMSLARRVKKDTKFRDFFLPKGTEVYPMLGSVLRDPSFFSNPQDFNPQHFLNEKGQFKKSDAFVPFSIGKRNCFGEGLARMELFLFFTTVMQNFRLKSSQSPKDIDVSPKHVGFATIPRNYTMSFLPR

Structure (SMILES): N[C@@H]1C[C@H]1c1ccccc1 (racemic) [Tranylcypromine, tranylcypromine]
- CYP2A6 % Inhibition [1]: 64.1%
- CYP2A6 activity % VC [1]: 35.9%

- activity at 60 min, 1 μM [2]: 27.9%
- inhibition at 60 min, 1 μM [2]: 72.1%
Structure (SMILES): Cc1nc2c([nH]1)c(=O)n(C)c(=O)n2Cc1ccco1 [Furafylline, furafylline]

- activity at 60 min, 25 μM [3]: 73.6%
- inhibition at 60 min, 25 μM [3]: 26.4%
Structure (SMILES): COc1ccc2[nH]c([S+]([O-])Cc3ncc(C)c(OC)c3C)nc2c1 (centres unmarked) [Omeprazole, omeprazole]

Structure (SMILES): Nc1ccc(S(=O)(=O)Nc2ccnn2-c2ccccc2)cc1 [Sulfaphenazole, sulfaphenazole]
- activity at 60 min, 10 μM [4]: 5.02%
- CYP2C9 % Inhibition [5]: 95.0%
